According to US20250145715A1, “B7-H3 TARGETING FUSION PROTEINS AND METHODS OF USE THEREOF” (GT Biopharma, Inc., priority 2021, published 2025):
“Also recorded” adds a separate entry of the source.

Experiments:
Assay type in all cases: cell-based, human
[1] = test system: myeloma cells (RPMI-8226, U266, MM1S, H929); assay: IncuCyte Zoom NK cell killing of myeloma cells
Description: (§1) FIGS. 7A-7B illustrate the ability of peripheral blood NK cells with or without B7-H3-TriKE to kill myeloma cells in live imaging IncuCyte Zoom assays. FIG. 7A is a graph showing the effects with effector:target (E:T) ratios of 2:1 and 4:1 on MM1S cells. FIG. 7B is a graph showing the effects with effector:target (E:T) ratios of 2:1 and 4:1 on U266 cells.
as §1, with “8A-8D” for “7A-7B”, “8A is a graph showing the effects with effector:target (E:T) ratios of 2:1 and 4:1 on H929 cells. FIG. 8B” for “7A”, “8C is a graph showing the effects with effector:target (E:T) ratios of 2:1 and 4:1 on RPMI-8226 cells. FIG. 8D” for “7B”
(§2) The ability of peripheral blood NK cells with or without B7-H3-TriKE to kill myeloma cells was compared in live imaging IncuCyte Zoom assays with escalating doses of TriKE. Maximal killing occurred with 3 nM concentration.

[2] = test system: RPMI-8226 cells; assay: IncuCyte Zoom NK cell killing of RPMI-8226; details: E:T 4:1
Description: as §1, with “8A-8D” for “7A-7B”, “8A is a graph showing the effects with effector:target (E:T) ratios of 2:1 and 4:1 on H929 cells. FIG. 8B” for “7A”, “8C is a graph showing the effects with effector:target (E:T) ratios of 2:1 and 4:1 on RPMI-8226 cells. FIG. 8D” for “7B”
(§3) FIGS. 9A-9D illustrate the efficacy of B7-H3-TriKE with the proteasome inhibitor bortezomib (10 nM) and the immunomodulatory drug lenalidomide (5 μM). FIG. 9A is a graph showing the effect of the combination therapy on H929 cells after 48 hours. FIG. 9B is a graph showing the effect of the combination therapy on RPMI-8226 cells after 48 hours. FIG. 9C is a graph showing the effect of the combination therapy on MM1S cells after 48 hours. FIG. 9D is a graph showing the effect of the combination therapy on U266 cells after 48 hours.
as §2
The efficacy of B7-H3-TriKE with the proteasome inhibitor bortezomib (10 nM) and the immunomodulatory drug lenalidomide (5 μM) was also tested. Cytotoxicity curves were compared by repeated measures ANOVA and performed in triplicate.

[3] = test system: U266 cells; assay: IncuCyte Zoom NK cell killing of U266; details: E:T 2:1 and 4:1
Description: as §1
as §1, with “8A-8D” for “7A-7B”, “8A is a graph showing the effects with effector:target (E:T) ratios of 2:1 and 4:1 on H929 cells. FIG. 8B” for “7A”, “8C is a graph showing the effects with effector:target (E:T) ratios of 2:1 and 4:1 on RPMI-8226 cells. FIG. 8D” for “7B”
as §3, with “FIG. 9D is a graph showing the effect of the combination therapy on U266 cells after 48 hours.” left out

[4] = test system: OVCAR8 ovarian cancer cells; assay: NK cell CD107a / IFNγ flow cytometry against OVCAR8; details: 30 nM, E:T 2:1, 4 hrs; vs no treatment and rhIL-15 alone
Protocol: FIG. 29A is a graph illustrating pooled proportion of NK cells from healthy donors expressing CD107a+ (degranulation) against OVCAR8 and MA148 targets. FIG. 29B is a graph illustrating pooled proportion of NK cells from healthy donors expressing IFNγ cytokine production against OVCAR8 and MA148 targets.
Healthy donor or ovarian cancer PBMC cells were incubated with ovarian tumor targets at 2:1 E:T ratio for 4 hrs with 30 nM TriKE or control condition. FIG. 30A is a graph illustrating pooled proportion of NK cells from healthy donors expressing CD107a+ (degranulation) against OVCAR8 targets (N=8). FIG. 30B is a graph illustrating pooled proportion of NK cells from healthy donors expressing IFNγ cytokine production against OVCAR8 targets (N=8). FIG. 30C is a graph illustrating pooled proportion of NK cells from healthy donors expressing CD107a+ (degranulation) against OVCAR3 targets (N=4). FIG. 30D is a graph illustrating pooled proportion of NK cells from healthy donors expressing IFNγ cytokine production against OVCAR3 targets (N=4). FIG. 30E is a graph illustrating pooled proportion of NK cells from healthy donors expressing CD107a+ (degranulation) against OVCAR5 targets (N=7). FIG. 30F is a graph illustrating pooled proportion of NK cells from healthy donors expressing IFNγ cytokine production against OVCAR5 targets (N=7). […] FIG. 30I is a graph illustrating that tumor killing was evaluated using IncuCyte imaging assay. […] The percentage of Live (Nuclight Red+Caspase 3/7−) tumor cells was quantified over a 48-h period and normalized to tumor alone. Readings were obtained every 15 min (representative of four separate experiments). * p<0.05, ** p<0.01, *** p<0.001, and **** p<0.0001.
ADCC was measured in a flow cytometry assay by evaluating degranulation via CD107a (lysosomal-associated membrane protein LAMP-1) and intracellular IFNγ production. […] Samples were washed and evaluated in an LSRII flow cytometer (BD Biosciences, San Jose, CA, USA).
The ability of cam1615B7-H3 TriKE to mediate NK cell activity against ovarian cancer cells was evaluated. […]

Substance | NK cell mediated killing of myeloma lines ([1]; 3 nM B7-H3-TriKE, all four myeloma lines) | TriKE concentration giving maximal killing ([1]; escalating doses of TriKE, peripheral blood NK cells) [nM] | NK cell killing of RPMI-8226 [2] | NK cell killing of U266 [3] | NK cell degranulation against OVCAR8 [4] | NK cell intracellular IFNγ production against OVCAR8 [4]
B7-H3 TriKE: camelid nanobodies targeting CD16 and B7-H3 joined by IL-15 and two linkers; sequence table equates the name with cam1615B7-H3 | statistically significant increase; also recorded: significantly enhanced NK cell mediated killing of myeloma cells | 3 | enhanced killing | significantly enhanced killing |  | 
cam1615B7-H3: second-generation TriKE: humanized camelid anti-CD16 VHH, human wild-type IL-15, anti-B7-H3 mAb 376.96 scFv; SEQ ID NO:1 |  |  |  |  | robust | robust
